EPA's ToxValDB 9.5
Where “and” joins values, the source holds several entries; their conditions need not be identical. Equal entries are not always repeated.

Tests used:
Rattus norvegicus [1] = settings: for LC50 / LD50: acute
Oryctolagus sp. = settings: for LD50: dermal
Rattus norvegicus [2] = settings: for LEL: uterotrophic, Active
Canidae = settings: oral, diet, M/F, Dog Other
Rattus norvegicus [3] = settings: short-term; duration: 28 days; oral; diet; M; Wistar; Body Weight Changes: Weight gain decrease + Food Consumption: decrease + Absolute Organ Weight: Thymus decrease + Relative Organ Weight: …
[4] = chronic, duration: 104 weeks, oral, diet, CDA
[5] = subchronic, duration: 90 days, oral, gavage, CDA Sprague-Dawley
[6] = Hershberger, duration: 10 days, injection, subcutaneous, Wistar, active + Androgenic + androgenic
[7] = duration: 3 days, injection, subcutaneous
[8] = chronic, duration: 4 months, inhalation
[9] = subchronic, duration: 90 days, sedation and tonoclonic spasms reduced food intake and body weight hematological effects
[10] = chronic, duration: 106 weeks, liver and kidney degeneration and bone marrow atrophy
[11] = chronic, duration: 1 years, hypertrophy of adrenal cortex (both sexes) hematological effects (males)
[12] = chronic, duration: 2 years, liver toxicity
[13] = chronic, duration: 1 years, tremors

Cc1cc(C)cc(O)c1 [3,5-Dimethylphenol]
LC50 (Mus musculus; acute, oral): 477 mg/kg | LC50 (Rattus norvegicus [1]; oral): 608 mg/kg | LC50 (Oryctolagus sp.; acute, oral): 1310 mg/kg

CC1(C)NC(=O)NC1=O [5,5-Dimethylhydantoin]
NOAEL (Mus musculus; short-term, duration: 28 days, oral, diet, F, CD1): 50000 ppm | LOAEL (Mus musculus; subchronic, duration: 13 weeks, oral, diet, CD1): 9850 mg/kg-day | LC50 (Rattus norvegicus [1]; inhalation): > 14.7 mg/L | LD50 (Rattus norvegicus [1]; oral, gavage, Sprague-Dawley): > 5000 mg/kg | NOAEL (Rattus norvegicus [1]; chronic, duration: 24 months, oral, diet, Crl:CDABR): > 1000 mg/kg-day | LOAEL (Rattus norvegicus [1]; [4]): > 1000 mg/kg-day | NOAEL (Rattus norvegicus [1]; [4]): 1000 mg/kg-day | NOAEL (Rattus norvegicus [1]; developmental, duration: 14 days, oral, gavage, Sprague-Dawley COBS CD): ≤ 2000 mg/kg-day | NOAEL (Rattus norvegicus [1]; developmental, oral, gavage, Crl:CD(SD) BR): 250 mg/kg-day | NOAEL (Rattus norvegicus [1]; reproduction developmental, duration: 10 weeks, oral, diet, CD, generation: F0): 20000 ppm | NOAEL (Rattus norvegicus [1]; reproduction developmental, duration: 10 weeks, oral, diet, CD, generation: F1): 20000 ppm | NOAEL (Rattus norvegicus [1]; reproduction developmental, oral, gavage, Crl:CD(SD) BR, generation: F0): 1000 mg/kg-day | NOAEL (Rattus norvegicus [1]; reproduction developmental, oral, gavage, F, Crl:CD(SD) BR): 1000 mg/kg-day | NOAEL (Rattus norvegicus [1]; subchronic, duration: 13 weeks, oral, gavage, Sprague-Dawley (CRl: CDBR)): 1000 mg/kg-day | LOAEL (Rattus norvegicus [1]; [5]): 5000 mg/kg-day | NOAEL (Rattus norvegicus [1]; [5]): 2000 mg/kg-day | LD50 (Oryctolagus sp.; acute, New Zealand): > 20000 mg/kg | LD50 (Oryctolagus sp.; acute, occlusive, New Zealand): > 3000 mg/kg | NOAEL (Oryctolagus sp.; developmental, duration: 13 days, oral, gavage, New Zealand): 100 mg/kg-day | NOAEL (Oryctolagus sp.; reproduction developmental, duration: 13 days, oral, gavage, F, New Zealand): 500 mg/kg-day

CC[C@@H](C(C)C)[C@@H](O)[C@H](O)[C@@H](C)[C@H]1CC[C@H]2[C@@H]3COC(=O)[C@H]4C[C@H](O)[C@H](O)C[C@]4(C)[C@H]3CC[C@]12C [28-Homobrassinolide]
LOEL (Rattus norvegicus [2]; [6]): 4 mg/kg-day | NOEL (Rattus norvegicus [2]; [6]): 0.4 mg/kg-day

CC/C(=C(\c1ccc(O)cc1)c1ccc(OCCN(C)C)cc1)c1ccccc1 [(Z)-4-Hydroxytamoxifen]
LEL (Rattus norvegicus [2]; [7]): 0.00016 mg/day

C1CCNCC1 [Piperidine]
LD50 (Mus musculus; acute, oral, DD): 536 mg/kg and 633 mg/kg | LC50 (Rattus norvegicus [1]; inhalation): > 6970 mg/m3 | LOAEL (Rattus norvegicus [1]; [8]): 0.01 mg/L | NOAEL (Rattus norvegicus [1]; [8]): 0.002 mg/L | NOAEL (% diet) (Rattus norvegicus [1]; chronic, duration: 50 weeks, oral, drinking water, Sprague-Dawley): 0.09 | LOAEL (Oryctolagus sp.; [8]): 0.01 mg/L | NOAEL (Oryctolagus sp.; [8]): 0.002 mg/L

C[N+]1(C)CCCCC1.[Cl-] [1,1-Dimethylpiperidinium chloride]
LEL (Canidae; [9]): 75 mg/kg-day | NOEL (Canidae; [9]): 25 mg/kg-day

CCC(C)(C)c1ccc(O)cc1 [4-(2-Methylbutan-2-yl)phenol]
LEL (Rattus norvegicus [2]; [7]): 200 mg/kg-day and 202 mg/kg-day

CSc1nc(NC(C)C)nc(NC(C)C)n1 [Prometryn]
LEL (Canidae; [10]): 37.5 mg/kg-day | NOEL (Canidae; [10]): 3.75 mg/kg-day

C=C[C@@]12CCc3cc(O)ccc3[C@H]1CC[C@@]1(C)[C@H]2CC[C@@H]1O [8beta-Vinylestra-1,3,5(10)-triene-3,17beta-ol]
LOEL (Rattus norvegicus [2]; Hershberger, duration: 12 days, injection, subcutaneous, Wistar, active + Androgenic + androgenic): 100 mg/kg-day

NC(CO)(CO)CO [Tromethamine]
LD50 (Mus musculus; acute, dermal): > 1000 mg/kg | LD50 (Mus musculus; acute, injection, Intraperitoneal): 3350 mg/kg | LD50 (Mus musculus; acute, injection, intravenous): 6100 mg/kg | LD50 (Mus musculus; acute, oral, gavage, Swiss): > 3000 mg/kg | LD50 (Rattus norvegicus [1]; dermal): > 1000 mg/kg | LD50 (Rattus norvegicus [1]; injection, intravenous): 6000 mg/kg | LD50 (Rattus norvegicus [1]; oral, gavage, Wistar): > 3000 mg/kg | NOAEL (Rattus norvegicus [1]; reproduction developmental, duration: 29 days, oral, gavage, Crl:CD(SD), generation: F0): 1000 mg/kg-day | NOAEL (Rattus norvegicus [1]; reproduction developmental, duration: 29 days, oral, gavage, Crl:CD(SD), generation: F1): 1000 mg/kg-day | NOAEL (Rattus norvegicus [1]; reproduction developmental, duration: 29 days, oral, gavage, generation: F0): 1000 mg/kg-day | NOAEL (Rattus norvegicus [1]; reproduction developmental, duration: 29 days, oral, gavage, generation: F1): 1000 mg/kg-day | NOAEL (Rattus norvegicus [1]; short-term, duration: 20 days, injection, intravenous, Sprague-Dawley): 500 mg/kg-day

C[C@H]1[C@H](c2ccc(Cl)cc2)SC(=O)N1C(=O)NC1CCCCC1 [Hexythiazox]
LEL (Canidae; [11]): 12.5 mg/kg-day | NOEL (Canidae; [11]): 2.5 mg/kg-day

CN(C)C(=O)C(c1ccccc1)c1ccccc1 [Diphenamid]
LEL (Canidae; [12]): 10 mg/kg-day | NOEL (Canidae; [12]): 3 mg/kg-day

CCCOC(=O)c1ccc(O)cc1 [Propylparaben]
LEL (Rattus norvegicus [2]; [7]): 65 mg/kg-day

CC1(C)C(C(=O)OC(C#N)c2cccc(Oc3ccccc3)c2)C1(C)C (stereo not given) [Fenpropathrin]
LOAEL (Canidae; [13]): 6.25 mg/kg-day | NOAEL (Canidae; [13]): 2.5 mg/kg-day

CCC[CH2][Sn]([Cl])([CH2]CCC)[CH2]CCC [Tributyltin chloride]
LEL (Rattus norvegicus [2]; duration: 0 days, oral, diet): 125 ppm | NOAEL (Rattus norvegicus [3]): 5 ppm
